What was measured:
[1] = Selectivity index, ratio of CC50 for human MT4 cells to EC50 for HIV1 3B infected in human MT4 cells; assay type: toxicity, cell-based; settings: MT4 cells (uninfected for CC50; HIV-1 3B infected for EC50)
[2] = Cytotoxicity against human MT4 cells by MTT assay; assay type: cell-based
[3] = system: Human immunodeficiency virus 1; assay: Antiviral activity against HIV1 3B infected in human MT4 cells assessed as inhibition of viral replication by MTT assay; assay type: functional, organism-based; settings: Human immunodeficiency virus 1, 3B
[4] = system: Human immunodeficiency virus 1; assay: Inhibition of LEDGF/p75-HIV1 integrase interaction at 100 uM by Alphascreen assay

| SMILES | selectivity ratio [1] | CC50 [2] | EC50 [3] | inhibition [4] |
| --- | --- | --- | --- | --- |
| CCCC(C(=O)O)c1c(C)nc2ccc(Cl)cc2c1-c1ccccc1 (stereo not drawn) | 25 | 67.3 µM | 2.35 µM |  |
| CCCC(C(=O)O)c1cnc2sc(C)cc2c1-c1ccc(C)cc1 (stereo not drawn) | 95 | 72.2 µM | 0.76 µM |  |
| C=CCC(C(=O)O)c1c(-c2ccccc2)c2cc(Cl)ccc2[nH]c1=O (stereo not drawn) | 6 | 67.3 µM | 12.4 µM |  |
| O=C(O)Cc1c(-c2ccccc2)c2cc(Cl)ccc2[nH]c1=O | > 3 | > 150 µM | 41.9 µM |  |
| CCCC(C(=O)O)c1c(-c2ccccc2)c2cc(Cl)ccc2n(CCC)c1=O (stereo not drawn) | 6 | 64.4 µM | 10.8 µM |  |
| Cc1ccc(-c2c(C(OC(C)(C)C)C(=O)O)cnc3sc(C)cc23)cc1 (stereo not drawn) | 1390 | 96 µM |  |  |
| Cn1c(=O)c(/C(=N/c2ccccc2)c2nnn[nH]2)c(O)c2ccccc21 |  |  |  | 36% |
